The values below come from patent US5506216A, “Cyclodextrin-biocide complex” (Boehringer Mannheim GmbH, priority 1993, dated 1996).

One may read the MIC as the smallest concentration in the dilution series that meets the test's criterion for growth inhibition.

Assay in all cases: MIC of included and free biocides on agar
Common to all, as to assay type: cell-based
What all share (conditions): for MIC: read-out: MIC of included and free biocides

Test [1] has as its system Pseudomonas fluorescens (gram -). The procedure:
(§1) The spectrum of activity of the individual biocide inclusion complexes was determined on bacteria (gram-positive and gram-negative strains), yeasts and fungi (see Table 1). The values are stated as MIC values (=minimum inhibitory concentration) in mg/ml.
(§2) The determination of the growth of the microorganisms was carried out on M121 medium (Sabouraud, 2% maltose nutrient agar (Merck)) for yeasts and fungi and on M130 medium (standard I nutrient agar (Merck)) for bacteria after 72 hours at 28° C. The amount of active substance in the CD inclusion compounds is less than 10%.

The test system of test [2] is Staphylococcus aureus (gram +). Here is the method:
as §1, §2

Test [3] relates to Escherichia coli (gram -). Here is the method:
as §1, §2

Another test concerns Candida albicans (yeast). Here is the method:
as §1, §2

Test [4] concerns Aspergillus oryzae (fungus). Here is the method: as §1, §2
In test [5] the test system is Bacillus subtilis (gram +). The procedure: as §1, §2
[6] abbreviates: M130 medium, 72 hours at 28° C., active substance in complexes <10%.
Where [7] appears, read: M121 medium, 72 hours at 28° C., active substance in complexes <10%.

Read-outs that look alike come from different tables or passages of the source.

On to 1,2-benzisothiazolin-3-thion [Proxel], for which the “MIC of included and free biocides” value in test [1] (setting [6]) is less than 40 µg/mL; in test [2] (setting [6]), less than 40 µg/mL; in test [3] (setting [6]), less than 40 µg/mL; in the test on Candida albicans (yeast) (setting [7]), 40 µg/mL; in test [4] (setting [7]), 75 µg/mL; in test [5] (setting [6]), less than 40 µg/mL.

`CNC(=O)c1ccccc1SSc1ccccc1C(=O)NC` [Densil P, dithio-2,2'-bis(benzmethylamide)]: the MIC in test [1] (setting [6]) is 300 µg/mL; in test [2] (setting [6]), less than 40 µg/mL; in test [3] (setting [6]), 75 µg/mL; in the test on Candida albicans (yeast) (setting [7]), 600 µg/mL; in test [4] (setting [7]), less than 40 µg/mL; in test [5] (setting [6]), less than 40 µg/mL.

With `N#CSCSC#N` [methylenebisthiocyanate], the minimum inhibitory concentration (MIC) in test [1] (72 h) is less than 40 µg/mL; in test [2] (72 h) it was 17.5 µg/mL; in test [3] (72 h) it was less than 40 µg/mL; in the test on Candida albicans (yeast) (72 h) it was 20 µg/mL; in test [4] (72 h), 20 µg/mL; in test [5] (72 h), 75 µg/mL.

In the case of `Oc1ccccc1-c1ccccc1` [o-phenylphenol], the minimal inhibitory concentration (MIC) came to 1250 µg/mL in test [1] (72 h); 1250 µg/mL in test [2] (72 h); 1250 µg/mL in test [3] (72 h); 600 µg/mL in the test with Candida albicans (yeast) (72 h); 300 µg/mL in test [4] (72 h); 1250 µg/mL in test [5] (72 h).
